Values quoted from earlier work, collected in US9884842B2, “Combretastatin analogs” (The Board of Trustees of the University of Arkansas, priority 2013, dated 2018).

Experiments:
Details in all cases: background; cited from earlier work
tubulin [1] = system: tubulin
[2] = system: multidrug resistant (MDR) cancer cell lines
tubulin [3] = system: tubulin; remark: listed apart in the source

SMILES: COc1ccc(/C=C\c2cc(OC)c(OC)c(OC)c2)cc1O [combretastatin A-4]
- inhibition of binding of radiolabeled colchicines to tubulin (tubulin [1]): competitively inhibit the binding of radiolabeled colchicines to tubulin
- activity against multidrug resistant (MDR) cancer cell lines [2]: active
- inhibition of tubulin polymerization (tubulin [3]): inhibit tubulin polymerization
